Tests used:
[1] = target: G/T mismatch-specific thymine DNA glycosylase (Homo sapiens) (UniProt Q13569); conditions: Compound Concentration 10.0 uM, Hit No;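 further: human TDG cleavage of quenched duplex DNA oligonucleotides coupled to APE1, strand release read as fluorescence at 594 nm, inhibition of TDG activity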
Description: Inhibition of TDG by quantifying inhibition of TDG-mediated cleavage and dissociation of quenched duplex DNA oligonucleotides, measured as fluorescence at 594 nm. To generate a functional strand incision and increase turn-over this assay is coupled to APE1.

[2] = target: Uracil-DNA glycosylase (Homo sapiens) (UniProt P13051); conditions: Compound Concentration 10.0 uM;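 further: UNG excision on a quenched double-stranded DNA oligo probe, with APE1 added for strand incision and turnover, read as fluorescence at 594 nm as strands separate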
Chain of Uracil-DNA glycosylase (Homo sapiens) (P13051 whole entry): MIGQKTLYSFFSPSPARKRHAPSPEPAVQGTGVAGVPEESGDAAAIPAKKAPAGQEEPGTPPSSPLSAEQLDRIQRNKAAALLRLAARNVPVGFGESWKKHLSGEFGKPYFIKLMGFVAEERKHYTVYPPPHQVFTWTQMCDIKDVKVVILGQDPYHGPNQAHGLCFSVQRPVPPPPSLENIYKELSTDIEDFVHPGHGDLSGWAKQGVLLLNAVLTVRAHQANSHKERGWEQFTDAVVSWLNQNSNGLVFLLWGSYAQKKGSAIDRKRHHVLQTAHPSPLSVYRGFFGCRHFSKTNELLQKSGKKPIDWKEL
Description: Inhibition of UNG by quantifying inhibition of UNG-mediated cleavage and dissociation of quenched duplex DNA oligonucleotides, measured as fluorescence at 594 nm. To generate a functional strand incision and increase turn-over this assay is coupled to APE1.

[3] = target: T1, Endonuclease 8-like 2 (Homo sapiens) (UniProt Q969S2); conditions: Compound Concentration 10.0 uM;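 further: fluorescence at 594 nm reports NEIL2 cutting and release of a quenched double-stranded DNA oligo substrate, reduced signal read as inhibition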
T1 sequence (whole entry): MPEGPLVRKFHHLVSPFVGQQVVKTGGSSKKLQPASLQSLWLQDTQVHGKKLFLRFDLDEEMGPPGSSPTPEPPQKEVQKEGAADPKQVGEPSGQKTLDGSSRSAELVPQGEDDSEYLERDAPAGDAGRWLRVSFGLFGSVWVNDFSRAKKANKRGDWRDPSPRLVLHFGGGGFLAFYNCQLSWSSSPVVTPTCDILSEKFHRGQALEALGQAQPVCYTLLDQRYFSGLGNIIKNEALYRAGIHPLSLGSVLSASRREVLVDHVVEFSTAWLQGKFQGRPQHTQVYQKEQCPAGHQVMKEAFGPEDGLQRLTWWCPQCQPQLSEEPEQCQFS
Description: Inhibition of NEIL2 by quantifying inhibition of NEIL2-mediated cleavage and dissociation of quenched duplex DNA oligonucleotides, measured as fluorescence at 594 nm.

[4] = target: T2, Endonuclease III-like protein 1 (Homo sapiens) (UniProt P78549); conditions: Compound Concentration 10.0 uM, Hit No;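 further: enzyme assay tracking NTHL1 cutting and release of a quenched double-stranded DNA oligo substrate, read as fluorescence at 594 nm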
T2 sequence (whole entry): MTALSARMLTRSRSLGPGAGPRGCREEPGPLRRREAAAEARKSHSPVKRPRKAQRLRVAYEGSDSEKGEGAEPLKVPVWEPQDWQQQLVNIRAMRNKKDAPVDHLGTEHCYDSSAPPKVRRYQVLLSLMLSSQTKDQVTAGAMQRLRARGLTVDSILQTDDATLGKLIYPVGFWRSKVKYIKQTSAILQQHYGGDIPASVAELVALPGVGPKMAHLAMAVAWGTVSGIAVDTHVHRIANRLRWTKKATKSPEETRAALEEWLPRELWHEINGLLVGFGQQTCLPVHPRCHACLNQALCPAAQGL
Description: Inhibition of NTHL1 by quantifying inhibition of NTHL1-mediated cleavage and dissociation of quenched duplex DNA oligonucleotides, measured as fluorescence at 594 nm.

[5] = target: Endonuclease 8-like 1 (Homo sapiens) (UniProt Q96FI4); conditions: Compound Concentration 10.0 uM, Hit No;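 further: fluorescence at 594 nm from quenched duplex DNA oligonucleotides released by NEIL1 cleavage and strand separation, reported as reduction of this enzyme activity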
Chain of Endonuclease 8-like 1 (Homo sapiens) (Q96FI4 whole entry): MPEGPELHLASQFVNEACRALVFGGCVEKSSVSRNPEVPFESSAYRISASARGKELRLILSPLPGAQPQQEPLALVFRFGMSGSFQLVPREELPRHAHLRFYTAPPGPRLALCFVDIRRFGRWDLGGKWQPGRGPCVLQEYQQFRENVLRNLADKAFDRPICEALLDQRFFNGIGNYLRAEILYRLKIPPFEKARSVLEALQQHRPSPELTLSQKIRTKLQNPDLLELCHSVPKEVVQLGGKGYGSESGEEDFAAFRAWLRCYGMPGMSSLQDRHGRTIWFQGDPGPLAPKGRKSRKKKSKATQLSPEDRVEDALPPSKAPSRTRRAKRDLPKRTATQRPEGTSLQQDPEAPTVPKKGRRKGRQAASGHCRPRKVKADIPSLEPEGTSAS
Description: Inhibition of NEIL1 by quantifying inhibition of NEIL1-mediated cleavage and dissociation of quenched duplex DNA oligonucleotides, measured as fluorescence at 594 nm.

[6] = target: T3, Single-strand selective monofunctional uracil DNA glycosylase (Homo sapiens) (UniProt Q53HV7); conditions: Compound Concentration 10.0 uM, Hit No;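 further: enzymatic SMUG1 assay coupled with APE1, reading fluorescence at 594 nm released when a quenched double-stranded DNA oligonucleotide substrate is cleaved and separated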
T3 sequence (whole entry): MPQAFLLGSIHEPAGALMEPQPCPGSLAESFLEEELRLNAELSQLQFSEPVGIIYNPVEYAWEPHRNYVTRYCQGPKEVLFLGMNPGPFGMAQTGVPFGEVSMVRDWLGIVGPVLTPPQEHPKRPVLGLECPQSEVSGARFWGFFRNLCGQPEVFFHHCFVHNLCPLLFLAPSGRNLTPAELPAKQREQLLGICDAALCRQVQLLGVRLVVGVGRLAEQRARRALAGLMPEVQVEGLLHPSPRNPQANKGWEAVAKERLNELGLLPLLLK
Description: Inhibition of SMUG1 by quantifying inhibition of SMUG1-mediated cleavage and dissociation of quenched duplex DNA oligonucleotides, measured as fluorescence at 594 nm. To generate a functional strand incision and increase turn-over this assay is coupled to APE1.

[7] = target: N-glycosylase/DNA lyase (Homo sapiens) (UniProt O15527); conditions: Compound Concentration 10.0 uM, Hit No;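 further: OGG1 cleavage of a quenched duplex DNA oligonucleotide, coupled to APE1 for strand incision, read as fluorescence at 594 nm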
Chain of N-glycosylase/DNA lyase (Homo sapiens) (O15527 whole entry, the tested form may be a part): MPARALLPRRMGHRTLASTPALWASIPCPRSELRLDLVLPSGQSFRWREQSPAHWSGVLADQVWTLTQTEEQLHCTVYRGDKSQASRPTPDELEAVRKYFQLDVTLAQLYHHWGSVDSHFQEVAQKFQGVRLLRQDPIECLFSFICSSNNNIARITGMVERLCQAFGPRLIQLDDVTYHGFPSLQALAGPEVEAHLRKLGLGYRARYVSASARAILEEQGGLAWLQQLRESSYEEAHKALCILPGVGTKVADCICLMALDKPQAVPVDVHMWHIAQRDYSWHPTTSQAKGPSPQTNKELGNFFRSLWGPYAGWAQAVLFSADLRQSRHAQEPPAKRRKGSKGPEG
Description: Inhibition of OGG1 by quantifying inhibition of OGG1-mediated cleavage and dissociation of quenched duplex DNA oligonucleotides, measured as fluorescence at 594 nm. To generate a functional strand incision and increase turn-over this assay is coupled to APE1.

[8] = target: Methyl-CpG-binding domain protein 4 (Homo sapiens) (UniProt O95243); conditions: Compound Concentration 10.0 uM, Hit No;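 further: MBD4 activity read as fluorescence at 594 nm from cleavage and release of a quenched duplex DNA oligonucleotide, with APE1 coupled to incise the strand and raise turnover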
Chain of Methyl-CpG-binding domain protein 4 (Homo sapiens) (O95243 whole entry, the tested form may be a part): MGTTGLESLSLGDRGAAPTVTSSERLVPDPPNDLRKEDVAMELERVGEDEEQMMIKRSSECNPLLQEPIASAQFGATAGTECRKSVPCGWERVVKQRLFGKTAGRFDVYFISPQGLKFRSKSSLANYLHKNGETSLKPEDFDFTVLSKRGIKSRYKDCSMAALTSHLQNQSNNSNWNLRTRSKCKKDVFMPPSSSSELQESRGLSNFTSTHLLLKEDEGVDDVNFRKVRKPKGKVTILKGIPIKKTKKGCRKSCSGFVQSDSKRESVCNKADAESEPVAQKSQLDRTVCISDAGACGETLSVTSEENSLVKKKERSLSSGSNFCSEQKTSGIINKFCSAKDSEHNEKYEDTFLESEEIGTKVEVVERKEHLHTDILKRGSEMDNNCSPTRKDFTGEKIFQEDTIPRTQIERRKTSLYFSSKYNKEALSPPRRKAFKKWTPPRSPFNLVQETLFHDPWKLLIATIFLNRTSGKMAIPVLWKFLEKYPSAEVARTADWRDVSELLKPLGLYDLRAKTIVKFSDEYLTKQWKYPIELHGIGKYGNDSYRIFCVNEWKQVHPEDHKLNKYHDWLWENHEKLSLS
Description: Inhibition of MBD4 by quantifying inhibition of MBD4-mediated cleavage and dissociation of quenched duplex DNA oligonucleotides, measured as fluorescence at 594 nm. To generate a functional strand incision and increase turn-over this assay is coupled to APE1.

[9] = target: DNA-3-methyladenine glycosylase (Homo sapiens) (UniProt P29372); conditions: Compound Concentration 10.0 uM, Hit No;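 further: enzyme assay where MPG cuts a quenched duplex DNA oligonucleotide probe, paired with APE1 for strand incision and turnover, read as fluorescence at 594 nm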
Chain of DNA-3-methyladenine glycosylase (Homo sapiens) (P29372 whole entry): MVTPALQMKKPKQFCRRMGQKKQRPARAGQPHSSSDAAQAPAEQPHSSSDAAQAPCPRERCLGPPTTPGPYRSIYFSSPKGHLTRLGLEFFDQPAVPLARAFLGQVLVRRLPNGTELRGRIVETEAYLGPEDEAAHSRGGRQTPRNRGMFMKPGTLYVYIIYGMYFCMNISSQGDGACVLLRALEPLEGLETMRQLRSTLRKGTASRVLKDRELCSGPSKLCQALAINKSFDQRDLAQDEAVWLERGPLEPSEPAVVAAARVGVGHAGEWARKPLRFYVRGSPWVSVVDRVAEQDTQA
Description: Inhibition of MPG by quantifying inhibition of MPG-mediated cleavage and dissociation of quenched duplex DNA oligonucleotides, measured as fluorescence at 594 nm. To generate a functional strand incision and increase turn-over this assay is coupled to APE1.

[10] = target: T4, Adenine DNA glycosylase (Homo sapiens) (UniProt Q9UIF7); conditions: Compound Concentration 10.0 uM, Hit No;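 further: human MUTYH activity read as 594 nm fluorescence from cleavage and release of a quenched DNA duplex, coupled with APE1 for strand incision, lower signal meaning inhibition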
T4 sequence (whole entry): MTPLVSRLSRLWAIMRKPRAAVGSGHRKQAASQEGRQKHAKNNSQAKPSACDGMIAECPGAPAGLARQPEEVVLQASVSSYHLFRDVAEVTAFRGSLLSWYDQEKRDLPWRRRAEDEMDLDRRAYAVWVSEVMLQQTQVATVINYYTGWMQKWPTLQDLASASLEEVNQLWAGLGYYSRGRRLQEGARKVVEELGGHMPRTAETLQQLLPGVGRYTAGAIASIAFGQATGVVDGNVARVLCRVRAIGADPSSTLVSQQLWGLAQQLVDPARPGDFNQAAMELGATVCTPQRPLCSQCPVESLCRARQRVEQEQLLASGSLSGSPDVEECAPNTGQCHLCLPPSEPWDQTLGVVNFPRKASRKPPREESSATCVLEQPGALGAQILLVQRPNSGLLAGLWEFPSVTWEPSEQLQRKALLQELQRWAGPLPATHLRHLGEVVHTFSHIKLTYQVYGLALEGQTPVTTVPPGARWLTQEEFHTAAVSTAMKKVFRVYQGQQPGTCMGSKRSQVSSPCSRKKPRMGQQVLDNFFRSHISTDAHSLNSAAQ
Description: Inhibition of MUTYH by quantifying inhibition of MUTYH-mediated cleavage and dissociation of quenched duplex DNA oligonucleotides, measured as fluorescence at 594 nm. To generate a functional strand incision and increase turn-over this assay is coupled to APE1.

Chain of G/T mismatch-specific thymine DNA glycosylase (Homo sapiens) (Q13569 whole entry): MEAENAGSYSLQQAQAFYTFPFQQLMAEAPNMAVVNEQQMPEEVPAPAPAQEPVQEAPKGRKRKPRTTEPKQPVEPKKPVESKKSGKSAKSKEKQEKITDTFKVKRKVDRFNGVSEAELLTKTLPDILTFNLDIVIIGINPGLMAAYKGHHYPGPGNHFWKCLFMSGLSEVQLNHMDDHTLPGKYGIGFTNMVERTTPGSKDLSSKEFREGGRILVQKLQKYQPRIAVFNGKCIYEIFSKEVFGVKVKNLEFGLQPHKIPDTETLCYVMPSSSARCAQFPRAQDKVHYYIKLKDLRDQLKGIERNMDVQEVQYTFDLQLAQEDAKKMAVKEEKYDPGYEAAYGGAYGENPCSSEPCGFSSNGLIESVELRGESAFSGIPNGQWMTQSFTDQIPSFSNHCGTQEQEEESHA

SMILES	inhibition [1] [%]	inhibition ([2]; Hit No) [%]	inhibition ([3]; Hit No) [%]	inhibition [4] [%]	inhibition [5] [%]	inhibition [6] [%]	inhibition [7] [%]	inhibition [8] [%]	inhibition [9] [%]	inhibition [10] [%]	inhibition ([2]; Hit Yes) [%]	inhibition ([3]; Hit Yes) [%]
NC(N)=Nc1nc(CSCC/C(N)=N/S(N)(=O)=O)cs1	13.5	-4.9	17.5	-2.47	9.58	-5.17	2.35	6.83	11.5	21.8	–	–
NCCc1c[nH]c2ccc(C(N)=O)cc12	8.45	-6.78	-5.97	-7.6	7.95	0.209	-3.21	-4.67	-1.86	4.88	–	–
CCOc1c2c(c(OCC)c3ncccc13)CN(c1ccc(CS(=O)(=O)NC(=O)Cc3ccccc3OC)cc1C)C2=O	20.4	-8.19	2.01	7.05	2.17	-1.24	3.01	14.3	-2.33	26.6	–	–
CCOC(=O)c1c(C)[nH]c2ccc3c(c12)CN1CCc2cc(OC)ccc2C1O3 (stereo not given)	29.8	-1.04	3.01	-1.01	-0.0556	8.69	32.3	29.1	18.6	18.2	–	–
COc1ccccc1C(=O)Nc1cccc(NC(=O)c2cccc(C)c2)c1	19.8	-7.92	-3.15	15.4	-5.33	-5.33	-2.96	14.3	18.5	8.28	–	–
CCn1cc(-c2ccnc3[nH]c(-c4cccc(CN(C)C)c4)cc23)c(-c2ccc(NC(=O)N(C)C)cc2)n1	49	–	23.1	2.18	-6.47	24.3	14.9	22.5	62.9	78.6	25	–
Cn1c(C2(NC(=O)c3ccc4c(C5CCCC5)c(-c5ncc(Br)cn5)n(C)c4c3)CCC2)nc2ccc(/C=C/C(=O)O)cc21	101	13.1	–	0.685	12.4	25.4	60.3	69.3	107	68.7	–	40.3
CCc1nc2c(o1)CC(c1ccc(C)cc1C)CC2=O (stereo not given)	16.4	0.136	6.53	-4.39	6.08	5.18	-9.46	17.2	23.6	-1.84	–	–
CC1(C)[C@H]2C[C@H](C/C=C\CCCC(=O)O)[C@@H](NC(=O)c3csc4ccc(O)cc34)[C@@H]1C2	20.1	-7.99	3.51	-3.21	13.3	-7.2	3.96	19.3	9.36	14.6	–	–
CC(CNS(=O)(=O)C(C)C)c1ccc(-c2ccc(C#N)cc2)cc1 (stereo not given)	11.5	-7.52	0.669	4.7	12	7.84	-4.77	19.3	23.5	-2.6	–	–
Cc1c(C2=CCN(C(=O)N(C)C(C)C)CC2)nnn1-c1cccnc1F	17.2	-8.86	9	-9.8	-0.649	11.5	-1.95	0.847	-1.32	17	–	–

Reference: ChEMBL document CHEMBL5665443, “Enzyme Inhibitor Single Concentration assay results for EUbOPEN Chemogenomics Library” (2024)
